Experimental findings from patent publication US10131650B2, “Alpha-helix analog having triazine-piperazine backbone and method for preparing same” (POSCO, priority 2014, dated 2018) are described below.

In one series the target is T1, α-synuclein (Homo sapiens, UniProt P37840).
T1 construct: GST (cleaved yes); made in house; host or cells: E. coli Rosetta 2 (DE3)
Nature of the series: Fluorescence polarization assay, binding to wild type α-synuclein. The conditions noted are these: result in words. Background: Polarisation of emitted light reports the rotation of a fluorescent probe.

Series [1] deals with HEK293 embryonic kidney cells. The series can be described thus: Cell viability assay. In kind it is cell-based. The conditions noted are these: 24 hours.
Series [2] in a line: Water solubility in phosphate buffered saline. The series is classed as physicochemical. The conditions noted are these: aqueous buffer; phosphate buffered saline at pH 7.4. The source says:
As a result of analyzing the three peptoids, the selected compounds had the following structures of 9a (Chemical formula 4), 9b (Chemical formula 5) and 9c (Chemical formula 6), respectively.

Series [3] deals with U266 cells (multiple myeloma). Nature of the series: Cell viability assay. The series is classed as cell-based. The conditions noted are these: 24 hours.
Series [4] addresses T2, interaction between MCL-1 and BH3 (Homo sapiens, UniProt Q07820).
T2 construct: GST (cleaved yes); made in house; host or cells: E. coli BL21(DE3)
Nature of the series: Competitive fluorescence polarization assay with FITC-MCL-1-BH3 peptide. The conditions noted are these: for Ki: competitive fluorescence polarization, FITC-MCL-1-BH3 50 nM, 0.8 μM MCL-1ΔNΔC, read-out: Ki, dissociation of the interaction between MCL-1 and BH-3; for activity in competitive fluorescence polarization assay (MCL-1/BH3): result in words. The series is classed as binding. Here is the method: MCL-1 protein was incubated with sulfo-NHS-Biotin (Thermo Scientific) in 0.1 M NaHCO3 buffer (pH 8.3) for 45 minutes at room temperature to biotinylate the MCL-1 protein (because MCL-1ΔNΔC protein used in the test have several Lysine residues being exposed in a surface and being apart from the active site of BH3 binding, the protein is biotinylated with modification). The reaction was quenched with addition of 1.5 M hydroxylamine. The labeled protein was separated with the dialysis with 1×PBS buffer containing 0.05% Tween20 (pH 7.4). The degree of labeling was determined according to the manufacturer's instructions (degree of biotinylation: 1.05 biotin per protein).
Fluorescence polarization values were measured with a SpectraMax M5 Multi-Mode Microplate Reader (Molecular Devices). […] KD was calculated with GraphPad Prism 4 software. […] N-terminal labeled FITC-MCL-1-BH3 peptide (FITC-Abu-[…]-NH2) was synthesized and purified with HPLC. The compounds was incubated at various concentrations with FITC-MCL-1-BH3 (50 nM) and 0.8 μM MCL-1ΔNΔC in binding buffer for 30 minutes and then was added by FITC-MCL-1-BH3 (50 nM). After incubated with addition of various concentrations of compounds, the fluorescence polarization was measured. Ki was calculated by using the conventional method (Nikolovska-Coleska, Z. et al, Anal. Biochem. 2004, 332, 261).

The test system of the next series is A549 cells. Nature of the series: Confocal microscopy, cell permeation. The series is classed as cell-based. The conditions noted are these: fluorescence-labeled compound. Here is the method: A549 cells (5×10^3 cells) were plated MEM medium containing 10% FBS of 96-well plates. Cells were maintained for 24 hours, washed with PBS, and then […] of fluorescence-labeled compound or 5 (6)-carboxyfluorescein was treated in Opti-MEM medium and incubated for 2.5 hours. The cells were washed with 1×PBS (2 times) and fluorescence images were analyzed.

For series [5], the system named is WS-1 human fibroblast cells. The series can be described thus: Cell viability assay. The conditions noted are these: 24 hours. In kind it is cell-based. As for the experimental part:
(§1) Jurkat T cells were cultured in RPMI 1640 medium containing 10% FBS, and 4×10^4 Jurkat T cells were seeded in 100 μL Opti-MEM medium (Invitrogen) of 96-well plate. WS-1 cells were cultured in MEM medium containing 10% FBS and 2×10^4 WS-1 cells were seeded in 100 μL MEM medium containing 10% FBS of 96-well plate for 24 hours, washed with PBS, and cultured in 100 μL Opti-MEM. The cells were maintained at serum-starved state for 6 hours and treated with the compound. After culturing for 24 hours, the cell viability was assayed using the CellTiter 96 AQueous Non-Radioactive Cell Proliferation Assay kit (Promega) according to the manufacturer's instructions.

The test system of the next series is Jurkat leukemia T cells. Nature of the series: Cell viability assay. The conditions noted are these: 24 hours. The series is classed as cell-based. As for the experimental part: as §1
The next series relates to U266 cells. The series can be described thus: Caspase 3/7 assay. In kind it is cell-based. The conditions noted are these: 16 hours.
In series [6] the target is T3, MCL-1/BAK interaction in Jurkat T cells (Homo sapiens, UniProt Q07820).
T3 construct: endogenous in cells; host or cells: Jurkat T cells
T3 sequence (Q07820 whole entry): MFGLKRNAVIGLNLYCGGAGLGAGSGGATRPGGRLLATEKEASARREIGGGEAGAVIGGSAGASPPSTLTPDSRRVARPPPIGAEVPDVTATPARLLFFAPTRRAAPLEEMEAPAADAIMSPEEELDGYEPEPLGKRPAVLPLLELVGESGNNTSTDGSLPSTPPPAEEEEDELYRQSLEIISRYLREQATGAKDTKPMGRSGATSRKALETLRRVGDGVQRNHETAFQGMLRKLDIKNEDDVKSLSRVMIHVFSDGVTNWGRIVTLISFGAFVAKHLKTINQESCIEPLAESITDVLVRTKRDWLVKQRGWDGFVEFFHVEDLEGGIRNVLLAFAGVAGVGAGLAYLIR
The series can be described thus: Co-immunoprecipitation and Western blotting. The series is classed as cell-based. The conditions noted are these: 2.5 hours, MCL-1 immunoprecipitation, Western blot. Here is the method:
In Opti-MEM medium, Jurkat T cells (1×10^7 cells) were treated with DMSO or compound. Cells were harvested after culturing for 2.5 hours, washed once with PBS, and lysed on ice using lysis buffer (50 mM Tris-HCl, pH 7.4, 150 mM NaCl, 1 mM EDTA, 1 mM DTT, 0.5% NP-40 and complete protease inhibitor tablet). Cell lysates were incubated with anti-MCL-1 antibody (S-19, Santa Cruz) overnight at 4° C. and incubated with protein A/G agarose for 1 hour. The beads were precipitated, washed at three times with lysis buffer, and the denatured protein was subjected to western blotting using anti-BAK (Cell Signaling) and anti-MCL-1 antibody. Western blot analysis was performed on an Immobilon-FL (Millipore) PVDF membrane. Goat anti-Rabbit IRDye 680 antibody (Licor) was used as a secondary antibody and the signal was analyzed with Odyssey 3.0 software.

For series [7], the target named is α-synuclein disease-associated mutant A53T (Homo sapiens, UniProt P37840, A53T). The series can be described thus: Thioflavin-T aggregation assay. In kind it is biochemical. The conditions noted are these: 30 hours, 37° C.
In another series the target is Mcl-1172-320 (Homo sapiens, UniProt Q07820). Nature of the series: Competitive fluorescence polarization assay with labeled Bak-BH3 peptide.
Mcl-1172-320, sequence (Q07820 172-320): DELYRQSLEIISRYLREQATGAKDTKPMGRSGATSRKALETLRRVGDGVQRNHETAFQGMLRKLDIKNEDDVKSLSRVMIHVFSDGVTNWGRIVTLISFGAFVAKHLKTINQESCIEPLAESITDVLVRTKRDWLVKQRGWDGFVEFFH
Another series deals with Bcl-xL1-212 (Homo sapiens, UniProt Q07817). Nature of the series: Competitive fluorescence polarization assay, selectivity. In kind it is binding. The conditions noted are these: competitive FP. An excerpt:
Because BH3-binding pocket of MCL-1 is similar to BH3-binding pocket of Bcl-2 family proteins such as Bcl-xL, the present inventors tested the selectivity of PPT-31.

T2 sequence (Q07820 172-320): as above
Bcl-xL1-212, sequence (Q07817 1-212): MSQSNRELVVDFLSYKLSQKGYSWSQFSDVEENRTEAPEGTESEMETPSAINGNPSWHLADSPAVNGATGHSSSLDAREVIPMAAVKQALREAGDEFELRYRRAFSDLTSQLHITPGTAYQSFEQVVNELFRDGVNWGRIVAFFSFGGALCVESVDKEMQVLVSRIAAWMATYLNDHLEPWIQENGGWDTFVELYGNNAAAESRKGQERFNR
Procedure for Mcl-1172-320: The cell was treated with 1 mM IPTG (isopropyl β-D-1-thiogalactopyranoside) to induce the protein expression. The cell pellet was resuspended with lysis buffer (20 mM Tris, pH 7.2, 250 mM NaCl, complete protease tablet (Roche)) and sonicated to be lysis. After centrifuging, the cell lysate was applied to a 5-mL GSTrap HP column (GE Life Sciences) and performed according to the manufacturer's instructions.
Various concentrations of phenyl-piperazine-triazine in 40 μL of buffer were added to the mixture. After incubating for 15 minutes, the Fluorescence polarization (mP units) was measured with Infinite®200 PRO Microplate Reader (Tecan).

By solubility is commonly meant how much of the substance goes into solution per volume. By Ki is commonly meant a measure of affinity in units of concentration, obtained from inhibition or displacement. With `CCNc1nc(NCCc2ccc(O)cc2)nc(N2CCN(c3nc(N)nc(Nc4ccc(Oc5ccccc5)cc4)n3)CC2Cc2ccccc2)n1` (stereo not drawn) [Chemical formula 6, 4-(2-((4-(4-(4-amino-6-((4-phenoxyphenyl)amino)-1,3,5-triazin-2-yl)-2-benzylpiperazin-1-yl)-6-(ethylamino)-1,3,5-triazin-2-yl)amino)ethyl)phenol], the “binding to α-synuclein” value at α-synuclein was “showed affinity”. Also, the “survival of normal cells” value in [1] and in series [5] was “did not affect survival” each time. Further, in series [2], the solubility was about 100 µg/mL. For the same molecule, the “survival of cancer cells” value (in [3]; with Jurkat leukemia T cells) was “effectively inhibited the survival” throughout. In series [4], the Ki was determined as 9.3 µM. Besides, the cell permeability result with A549 cells was “permeable to cells”. The “caspase 3/7 activity” value with U266 cells is reported as “increased the caspase activity in a concentration-dependent manner”. In addition, in series [6], the “inhibition of MCL-1/BAK protein interaction in cells” value (“inhibition … in cells” below) is given as “inhibited”.
Regarding `CCNc1nc(N)nc(N2CCN(c3nc(NCC)nc(NCC)n3)CC2)n1` [9-nc, 6-(4-(4-amino-6-(ethylamino)-1,3,5-triazin-2-yl)piperazin-1-yl)-N^2,N^4-diethyl-1,3,5-triazine-2,4-diamine, reference compound], the “activity in competitive fluorescence polarization assay (MCL-1/BH3)” value in series [4] is recorded as “did not bind”. The “inhibition … in cells” value in series [6] is on record as “did not inhibit”.
As to `CCNc1nc(NCc2ccccc2)nc(N2CCN(c3nc(N)nc(NCc4ccc5c(c4)OCO5)n3)CC2Cc2ccccc2)n1` (stereo not drawn) [Chemical formula 4, 6-(4-(4-amino-6-((benzo[d][1,3]dioxol-5-ylmethyl)amino)-1,3,5-triazin-2-yl)-2-benzylpiperazin-1-yl)-N^2-benzyl-N^4-ethyl-1,3,5-triazine-2,4-diamine], the “aggregation of α-synuclein (onset / inhibition)” value in [7] is listed as “had not inhibition of aggregation”. For the same molecule, in series [2], the solubility was about 100 µg/mL. In addition, in series [4], the “activity in competitive fluorescence polarization assay (MCL-1/BH3)” value was “weak activity”.
As to `CCNc1nc(NCc2ccccc2)nc(N2CCN(c3ccc(C(N)=O)cc3NCc3ccccc3)CC2Cc2ccccc2)n1` (stereo not drawn) [PPT-31, 2-{4-(2-aminobenzyl-4-carbamoylphenyl)-2-benzyl-piperazine}-4-aminoethyl-6-aminobenzyl-[1,3,5]triazine], at Mcl-1172-320, affinity was put at a Ki of 7.3 µM. For the same molecule, at Mcl-1172-320 (at 10 μM and 50 μM, among 36 library compounds), the “inhibitory effect on the Mcl-1/BH3 interaction” value is given as “highest inhibitory effect”. Also, the “inhibition of the interaction between Bcl-xL1-212 and BH3” value on Bcl-xL1-212 is listed as “did not inhibit”.
In series [2], `CCCN(CC1CC1)c1nc(N)nc(N2CCN(c3nc(NCC)nc(NCc4ccc5c(c4)OCO5)n3)C(Cc3ccccc3)C2)n1` (stereo not drawn) [Chemical formula 5, 6-(4-(4-amino-6-((cyclopropylmethyl)(propyl)amino)-1,3,5-triazin-2-yl)-2-benzylpiperazin-1-yl)-N^2-(benzo[d][1,3]dioxol-5-ylmethyl)-N^4-ethyl-1,3,5-triazine-2,4-diamine] showed a solubility of about 100 µg/mL. Moreover, in [4], the Ki was 17.2 µM. Moreover, the “inhibition … in cells” value in series [6] is “effectively inhibit”.
